{"source": "patent US12410228B2", "about": "“Insulin analogs” (UNIVERSITY OF UTAH RESEARCH FOUNDATION, priority 2016, dated 2025)", "key": {"[1]": {"test_system": "fish", "assay": "Effect on fish (injection or presence in the water)", "assay_type": "in vivo"}, "[2]": {"molecular_target": "T1, human IR-B (Homo sapiens, UniProt P06213)", "T1 construct": "expressed in transfected cells; host or cells: NIH 3T3 mouse fibroblasts overexpressing human IR-B (puromycin selection)", "assay": "cell-based"}, "[3]": {"molecular_target": "T2, human IR (isoform B) (Homo sapiens, UniProt P06213)", "T2 construct": "expressed in transfected cells; host or cells: R- IR-B cells, lysed with Triton X-100 and captured with anti-IR antibody 83-7; This comes from the general description of the Denley et al. 2004 format", "assay": "biochemical", "assay_type": "binding"}, "[4]": {"molecular_target": "hIR (Homo sapiens, UniProt P06213)", "assay": "hIR activation / insulin signalling activation by DOI analogues and venom insulins (Example 11, FIGS. 22-27)", "assay_type": "cell-based"}, "[5]": {"conditions": "relative to insulin; Bao et al. 1997; cited from earlier work"}}, "note": "pEC50, pIC50: −log10 of the molar value.", "data": [{"molecule": "CC[C@H](C)[C@@H]1NC(=O)[C@H](CC(C(=O)O)C(=O)O)NC(=O)[C@H](CO)NC(=O)CNC(=O)[C@@H](NC(=O)[C@H](CCCNC(=N)N)NC(=O)[C@H](Cc2c[nH]cn2)NC(=O)[C@H](CCCCN)NC(=O)[C@@H]2C[C@@H](O)CN2C(=O)[C@@H](NC(=O)[C@H](CC(=O)O)NC(=O)[C@H](Cc2ccccc2)NC(=O)[C@@H](N)[C@@H](C)O)[C@@H](C)O)CSSC[C@@H]2NC(=O)[C@@H](NC(=O)[C@H](Cc3c[nH]cn3)NC(=O)[C@H](CC(C(=O)O)C(=O)O)NC(=O)[C@@H](NC(=O)[C@@H](NC(=O)CN)C(C)C)C(C)C)C[Se][Se]C[C@H](NC(=O)[C@@H]3CCCN3C(=O)[C@H](CCCNC(=N)N)NC(=O)[C@H](Cc3c[nH]cn3)NC2=O)C(=O)N[C@@H](CO)C(=O)N[C@@H](CC(N)=O)C(=O)N[C@@H](C)C(=O)N[C@@H](CCC(=O)O)C(=O)N[C@@H](Cc2ccccc2)C(=O)N[C@@H](CCCCN)C(=O)N[C@@H](CCCCN)C(=O)N[C@@H](Cc2ccc(O)cc2)C(=O)N[C@H](C(N)=O)CSSC[C@@H](C(=O)N[C@@H](Cc2ccc(O)cc2)C(=O)N[C@@H](CCCNC(=N)N)C(=O)O)NC(=O)[C@H](CC(C)C)NC(=O)[C@H](CC(=O)O)NC(=O)[C@H](CCSC)NC(=O)[C@H](Cc2ccc(O)cc2)NC(=O)[C@H](CO)NC(=O)[C@H](CC(N)=O)NC(=O)[C@H]([C@@H](C)O)NC1=O", "note": "[sCon-Ins G1]", "values": [{"measurement": "hypoglycemic effect in fish", "setting": "[1]; injected into fish", "value": "induces hypoglycemic shock"}, {"measurement": "effect on fish motility", "setting": "[1]; present in the water", "value": "slows fish motility"}, {"measurement": "pEC50", "setting": "[2]", "value": 8.10}, {"measurement": "efficiency of inducing Akt phosphorylation relative to PTM-free analogue", "setting": "[2]", "value": "eight-fold greater efficiency"}, {"measurement": "pIC50", "setting": "[3]", "value": 7.76}, {"measurement": "activity / affinity at human IR relative to human insulin (fold less)", "setting": "[3]", "value": "thirty-fold less active"}, {"measurement": "activity against the human IR-B relative to PTM-free analogue", "setting": "[3]", "value": "four times more active"}]}, {"molecule": "DOI: monomeric analogue lacking residues 23 to 30 of the B chain of human insulin [reference compound]", "values": [{"measurement": "potency in hIR activation, comparison in words", "setting": "[4]", "value": "same"}, {"measurement": "potency relative to human insulin (fold weaker)", "setting": "[4]; relative to human insulin", "value": "1,000 fold"}, {"measurement": "bioactivity preserved", "setting": "[5]", "value": "less than 0.1%"}]}, {"molecule": "hIns[TyrB15, TyrB20, DOI]: des-octapeptide human insulin with Tyr at B15 and B20", "values": [{"measurement": "activity in Akt phosphorylation assay relative to hIns[DOI]", "setting": "[2]", "value": "ca five-fold more active"}]}, {"molecule": "quadruple DOI mutant: DOI analogue with A8 His, A9 Arg, B10 Glu and B20 Tyr; A chain SEQ ID NO: 39, B chain SEQ ID NO: 30", "values": [{"measurement": "potency in hIR activation, comparison in words", "setting": "[4]", "value": "comparable to that of human insulin"}]}]}
